Reference: patent publication US4525589A, “Isoquinolinesulfonyl derivatives” (Asahi Kasei Kogyo Kabushiki Kaisha, priority 1981, dated 1985)

Key:
femoral artery = experiment: Effect on blood flow volume of femoral artery of dog; type: in vivo, dog of mixed breed; details: 1 mg/Kg intravenous, anesthetized dog; for change in vivo at 1 mg/kg: Canis lupus familiaris, iv, read-out: Increased Blood Flow Volume in Femoral Artery
Description: (§1) The effect of the isoquinolinesulfonyl derivatives and the pharmaceutically acceptable acid addition salts of this invention on the vasodilatation of the femoral and vertebral arteries can be measured by anesthetizing a dog of mixed breed weighting 8 to 15 Kg by an intravenous administration of 35 mg/Kg of pentbarbital, providing an acute type probe (a product of Nippon Koden K.K., Japan) with the femoral and vertebral arteries, administering the isoquinolinesulfonyl derivatives and the pharmaceutically acceptable acid addition salts to the femoral vein through a polyethylene tube inserted into the femoral vein side chain and measuring the blood flow volume with an electromagnetic flowmeter (a product of Nippon Koden K.K., Japan, "MF-27"). Among the isoquinolinesulfonyl compounds of Formula (I) of this invention, those with l=0 and the [drawing 37] group show a high action for increasing blood flow and simultaneously a selectivity to vertebral arteries. For example, when 1 mg/Kg of 1-(5-isoquinolinesulfonyl)piperazine, i.e., Compound (35) was intravenously administered, the increased blood flow volumes in the vertebral artery and in the femoral artery were 98% and 65%, respectively. Also the isoquinolinesulfonyl compounds of Formula (I) of this invention with l=1 and one of the R2 and R3 groups=a hydrogen atom show a continuing blood flow increase. With 1 mg/Kg of N-(2-aminoethyl)-5-isoquinolinesulfonamide, i.e., Compound (1), an increase in the blood flow volume in the vertebral artery was continued for at least 30 minutes.
(§2) The effect on the vasodilatation of the femoral and vertebral arteries was measured by anesthetizing a dog of mixed breed weighing 8 to 15 Kg by an intravenous administration of 35 mg/Kg of pentabarbital, providing an acute type probe (a product of Nippon Koden K.K., Japan) with the femoral and vertebral arteries, administering the 5-isoquinolinesulfonyl derivatives and their pharmaceutically acceptable acid addition salts to the femoral vein through a polyethylene tube inserted into the femoral vein side chain and measuring the blood flow volume with an electromagnetic blood flowmeter (a product of Nippon Koden K.K., Japan, "MF-27").

[1] = Acute toxicity, intravenous administration to male ddY-strain mice; details: mouse, in vivo
Description: The acute toxicity of the 5-isoquinolinesulfonyl derivatives and their pharmaceutically acceptable acid addition salts were measured by giving male ddY-strain mice an intravenous administration.

vertebral artery = experiment: Effect on blood flow volume of vertebral artery of dog; type: in vivo, dog of mixed breed; details: 1 mg/Kg intravenous; for change in vivo at 1 mg/kg: Canis lupus familiaris, read-out: Increased Blood Flow Volume in Vertebral Artery
Description: as §1, §2

mesenteric artery = experiment: Relaxation of mesenteric artery (helical strips contracted with KCl, organ bath); parameters: species or system rabbit (home bred, Japanese species); details: Oryctolagus cuniculus; concentration for 50% relaxation; KCl 15~20 mM contraction; read-out: Relaxation of Mesenteric Artery ED50
Description: After a home bred rabbit of a Japanese species weighing about 3 Kg was subjected to bloodletting, resulting in death and then to abdominal incision, the mesenteric artery was taken out, cut into helicoids of 2 mm×25 mm and suspended in a 20 ml organ bath filled with a Krebs-Henseleit solution into which a mixed gas of 95% by volume of O2 and 5% by volume of CO2 was introduced and one end of the artery was connected with an isometric transducer. When a load of 1.5 g was applied to the artery, the contraction and the relaxation of the artery were recorded as a weight on the transducer (a product of Nippon Koden K.K., Japan, "FD Pickup TB-912T"). The relaxation of the mesenteric artery was observed by adding the isoquinolinesulfonyl derivatives and their pharmaceutically acceptable acid addition salts of this invention to the mesenteric artery at the condition of about one half of the maximum contraction with KCl at a KCl concentration of 15~20 mM. When the complete relaxation of the mesenteric artery was designated 100%, the concentration of the isoquinolinesulfonyl derivatives and their pharmaceutically acceptable acid addition salts which brought about a relaxation of 50% is shown in Table 12.

EC50 (mesenteric artery) | Structure (SMILES) | change in vivo at 1 mg/kg (femoral artery) | LD50 [1] | change in vivo at 1 mg/kg (vertebral artery; anesthetized dog) | further results
– | NCCNS(=O)(=O)c1cccc2cnccc12 [Compound 1] | 30% | 108 mg/kg | 45% | –
– | NCCCCNS(=O)(=O)c1cccc2cnccc12 [Compound 3] | 33% | 87 mg/kg | 36% | –
– | CCCCN(CCCC)CCCNS(=O)(=O)c1cccc2cnccc12 [Compound 19] | 25% | 180 mg/kg | 20% | –
– | CNS(=O)(=O)c1cccc2cnccc12 [Compound 25] | 38% | 137 mg/kg | 29% | –
– | O=S(=O)(c1cccc2cnccc12)N1CCCC1 [Compound 33] | 35% | 150 mg/kg | 37% | –
– | O=S(=O)(c1cccc2cnccc12)N1CCNCC1 [Compound 35] | 69% | 29 mg/kg | 98% | –
– | CN1CCN(S(=O)(=O)c2cccc3cnccc23)CC1 [Compound 36] | 35% | 94 mg/kg | 63% | –
– | CC1CN(S(=O)(=O)c2cccc3cnccc23)CCN1 (stereo not shown) [Compound 37] | 65% | 89 mg/kg | 90% | –
– | CC1CN(S(=O)(=O)c2cccc3cnccc23)C(C)CN1 (stereo not shown) [Compound 40] | 50% | 42 mg/kg | 110% | –
– | CC(C)CC1CN(S(=O)(=O)c2cccc3cnccc23)CCN1 (stereo not shown) [Compound 46] | 32% | 130 mg/kg | 55% | –
– | CCCCCCN1CCN(S(=O)(=O)c2cccc3cnccc23)CC1 [Compound 51] | 39% | 108 mg/kg | 68% | –
– | O=S(=O)(c1cccc2cnccc12)N1CCN(CC=Cc2ccccc2)CC1 [Compound 59] | 25% | 145 mg/kg | 49% | –
27 µM | O=C(C=Cc1ccccc1)N1CCN(S(=O)(=O)c2cccc3cnccc23)CC1 [Compound (60), 1-(5-isoquinolinesulfonyl)-4-cinnamoylpiperazine] | – | – | – | –
24 µM | O=C(c1ccco1)N1CCN(S(=O)(=O)c2cccc3cnccc23)CC1 [Compound (61), 1-(5-isoquinolinesulfonyl)-4-furoylpiperazine] | – | – | – | –
13 µM | CCOC(CN1CCN(S(=O)(=O)c2cccc3cnccc23)CC1)c1ccccc1 (stereo not shown) [Compound (63), 1-(5-isoquinolinesulfonyl)-4-(2-ethoxy-2-phenylethyl)piperazine] | – | – | – | –
13 µM | CN(CCNS(=O)(=O)c1cccc2cnccc12)Cc1ccccc1 [Compound (65), N-[2-(N-methyl-N-benzylamino)ethyl]-5-isoquinolinesulfonamide] | – | – | – | –
18 µM | CC(C)N(CCNS(=O)(=O)c1cccc2cnccc12)Cc1ccccc1 [Compound (67), N-[2-(N-isopropyl-N-benzylamino)ethyl]-5-isoquinolinesulfonamide] | – | – | – | –

Structure (SMILES) | EC50 (mesenteric artery) | change in vivo at 1 mg/kg (femoral artery) | LD50 [1] | change in vivo at 1 mg/kg (vertebral artery; anesthetized dog) | further results
NCCNS(=O)(=O)c1cccc2cnccc12 [Compound (1), N-(2-aminoethyl)-5-isoquinolinesulfonamide] | 5 µM | – | – | – | Duration of increase in the blood flow volume in the vertebral artery (vertebral artery; dog): at least 30 minutes
O=S(=O)(c1cccc2cnccc12)N1CCNCC1 [Compound (35), 1-(5-isoquinolinesulfonyl)piperazine] | 0.6 µM | – | – | – | Increased Blood Flow Volume in Femoral Artery (femoral artery): 65%; Increased Blood Flow Volume in Vertebral Artery (vertebral artery; anesthetized dog): 98%
